# From patent US20220112192A1, “COMPOUNDS AND METHODS OF USE THEREOF FOR TREATMENT OF CANCER” (ARAXES PHARMA LLC, priority 2018, published 2022)
# Biological target: T1, KRAS G12C 1-169, his-tagged protein, GDP-loaded (Homo sapiens, UniProt P01116, G12C)
# T1 construct: KRAS G12C 1-169, his-tagged protein, GDP-loaded
# Test: Biochemical assay: covalent modification of KRAS G12C measured by mass spectrometry
# Type: binding
# Settings: modification of KRAS G12C at 10 minutes
# Experimental: Test compounds were prepared as 10 mM stock solutions in DMSO (Fisher cat #BP-231-100). KRAS G12C 1-169, his-tagged protein, GDP-loaded was diluted to 2 μM or 0.5 μM in buffer (20 mM Hepes, 150 mM NaCl, 1 mM MgCl2).
# Compounds were tested for activity as follows: Compounds were diluted to 50× final test concentration in DMSO in 96-well storage plates. Compound stock solutions were vortexed before use and observed carefully for any sign of precipitation. Dilutions were as follow: • For 100 μM final compound concentration, compounds were diluted to 5000 μM (5 μL 10 mM compound stock+5 μL DMSO and mixed well by pipetting. • For 30 μM final compound concentration, compounds were diluted to 1500 μM (3 μL 10 mM compound stock+17 μL DMSO) and mixed well by pipetting. • For 10 μM final compound concentration, compounds were diluted to 500 μM (2 μL 10 mM compound stock+38 μL DMSO) and mixed well by pipetting. 49 μL of the stock protein solution was added to each well of a 96-well PCR plate (Fisher cat #1423027). 1 μL of the diluted 50× compounds were added to appropriate wells in the PCR plate using 12-channel pipettor. Reactions were mixed carefully and thoroughly by pipetting up/down with a 200 μL multi-channel pipettor. The plate was sealed well with aluminum plate seal, and stored in drawer at room temperature for 10 minutes, 30 minutes, 2 hours or 24 hours. 5 μL of 2% formic acid (Fisher cat #A117) in de-ionized H2O was then added to each well followed by mixing with a pipette. The plate was then resealed with aluminum seal and stored on dry ice until analyzed as described below.
# The above described assays are analyzed by mass spectrometry according to one of the following two procedures:
# The MS instrument was set to positive polarity, 2 GHz resolution, and low mass (1700) mode and allowed to equilibrate for 30 minutes. The instrument was then calibrated, switched to acquisition mode and the appropriate method loaded.
# After another 30 minute equilibration time, a blank batch (i.e., buffer) was run to ensure equipment is operating properly. The samples are thawed at 37° C. for 10 minutes, briefly centrifuged, and transferred to the bench top. Wells A1 and H12 were spiked with 1 μL 500 μM internal standard peptide, and the plates centrifuged at 2000×g for 5 minutes. The method was then run and masses of each individual well recorded.
# The masses (for which integration data is desired) for each well were pasted into the platemap and exported from the analysis. Masses for the internal standards were exported as well. The data at 50 ppm was extracted for the +19 charge state, and identity of well A1 was assigned using the internal standard spike and integrated. Peak data was exported as a TOF list and the above steps are repeated individually, for the +20, 21, 22, 23, 24, and 25 charge states.
# ? -Exactive Assay:
# The masses and peak intensities of KRAS G12C protein species were measured using a Dionex RSLCnano system (Thermo Scientific) connected to a Q Exactive Plus mass spectrometer (Thermo Scientific). […] of sample was each loaded onto a Aeris™ […] WIDEPORE C4 200 Å, LC Column 50×2.1 mm column maintained at 40° C. at a flow rate of 600 μL/min with 20% Solvent A (0.1% formic acid in H2O) and […] (0.1% formic acid in acetonitrile). The liquid chromatography conditions were 20% solvent B for 1 minute, 20% to 60% solvent B for 1.5 minutes, 60% to 90% solvent for 0.5 minute, 90% solvent B for 0.2 minute, 90% to 20% solvent B for 0.2 minute, and then equilibrated for 1.6 minutes before the following sample injection. The flow rate was maintained at 600 μL/min throughout sample analysis.
# The mass spectrometer was operated in profile mode at a resolution of 17500, 5 microscans, using 50 msec max injection time and an AGC target of 1×10^6, and a full mass range from 800-1850 m/z was recorded. The HCD trapping gas was optimized for maximum sensitivity for intact proteins. […]
row,Compound,Binding %
1,"1-(6-(6-chloro-7-(5-methyl-1H-indazol-4-yl)-2-(((S)-1-methylpyrrolidin-2-yl)methoxy)-8-(2,2,2-trifluoroethoxy)quinazolin-4-yl)-2,6-diazaspiro[3.4]octan-2-yl)prop-2-en-1-one [Compound I-75]",+++ (+++ indicates binding activity greater than 85% at 10 minutes)
2,"1-(6-(7-(5-methyl-1H-indazol-4-yl)-2-(((S)-1-methylpyrrolidin-2-yl)methoxy)-8-(2,2,2-trifluoroethoxy)-6-vinylquinazolin-4-yl)-2,6-diazaspiro[3.4]octan-2-yl)prop-2-en-1-one [Compound I-74]",++ (++ indicates binding activity from 50 to 85% at 10 minutes)
3,"C=CC(=O)C1CC2(CCN1c1nc(=O)n(-c3ccccc3C(C)C)c3cc(-c4c(C)ccc5[nH]ncc45)c(Cl)cc13)CNC2 (single isomer, unassigned) [II-5a, 4-(6-acryloyl-2,7-diazaspiro[3.5]nonan-7-yl)-6-chloro-1-(6-isopropylphenyl)-7-(5-methyl-1H-indazol-4-yl)quinazolin-2(1H)-one]",+ (+ indicates binding activity greater than 0% and up to 50% at 10 minutes)
4,"C=CC(=O)C1CC2(CCN1c1nc(=O)n(-c3ccccc3C(C)C)c3cc(-c4c(C)ccc5[nH]ncc45)c(Cl)cc13)CNC2 (single isomer, unassigned) [II-5b, 4-(6-acryloyl-2,7-diazaspiro[3.5]nonan-7-yl)-6-chloro-1-(6-isopropylphenyl)-7-(5-methyl-1H-indazol-4-yl)quinazolin-2(1H)-one]",++ (++ indicates binding activity from 50 to 85% at 10 minutes)
5,"C=CC(=O)N1CC2(CCN(c3nc(OC[C@@H]4CCCN4C)nc4c(F)c(-c5c(C)ccc6cnn(C)c56)c(Cl)cc34)C2)C1 [Compound I-1, 1-(6-(6-chloro-7-(1,6-dimethyl-1H-indazol-7-yl)-8-fluoro-2-(((S)-1-methylpyrrolidin-2-yl)methoxy)quinazolin-4-yl)-2,6-diazaspiro[3.4]octan-2-yl)prop-2-en-1-one]",++ (++ indicates binding activity from 50 to 85% at 10 minutes)
6,"C=CC(=O)N1CC2(CCN(c3nc(OC[C@@H]4CCCN4C)nc4c(F)c(-c5c(C)ccc6cnn(C)c56)c(Cl)cc34)CC2)C1 [Compound I-2, 1-(7-(6-chloro-7-(1,6-dimethyl-1H-indazol-7-yl)-8-fluoro-2-(((S)-1-methylpyrrolidin-2-yl)methoxy)quinazolin-4-yl)-2,7-diazaspiro[3.5]nonan-2-yl)prop-2-en-1-one]",+++ (+++ indicates binding activity greater than 85% at 10 minutes)
7,"C=CC(=O)N1CC2(CCN(c3nc(OC[C@@H]4CCCN4C)nc4c(F)c(-c5c(C)ccc6cn[nH]c56)c(Cl)cc34)CC2)C1 [Compound I-3, 1-(7-(6-chloro-8-fluoro-7-(6-methyl-1H-indazol-7-yl)-2-(((S)-1-methylpyrrolidin-2-yl)methoxy)quinazolin-4-yl)-2,7-diazaspiro[3.5]nonan-2-yl)prop-2-en-1-one]",+++ (+++ indicates binding activity greater than 85% at 10 minutes)
8,"C=CC(=O)N1CC2(CCN(c3nc(OC[C@@H]4CCCN4C)nc4c(F)c(-c5c(C)ccc6[nH]ncc56)c(Cl)cc34)CC2)C1 [Compound I-6, 1-(7-(6-chloro-8-fluoro-7-(5-methyl-1H-indazol-4-yl)-2-(((S)-1-methylpyrrolidin-2-yl)methoxy)quinazolin-4-yl)-2,7-diazaspiro[3.5]nonan-2-yl)prop-2-en-1-one]",+++ (+++ indicates binding activity greater than 85% at 10 minutes)
9,"C=CC(=O)N1CC2(CCN(c3c(Cl)c(-c4c(C)ccc5[nH]ncc45)c(OCC(F)(F)F)c4nc(OC[C@@H]5CCCN5C)ncc34)C(C)C2)C1 (stereo partly drawn) [Compound I-76, 1-(7-(6-chloro-7-(5-methyl-1H-indazol-4-yl)-2-(((S)-1-methylpyrrolidin-2-yl)methoxy)-8-(2,2,2-trifluoroethoxy)quinazolin-5-yl)-6-methyl-2,7-diazaspiro[3.5]nonan-2-yl)prop-2-en-1-one]",++ (++ indicates binding activity from 50 to 85% at 10 minutes)
